Measured values taken from patent publication US20250129430A1, “HIGH ATP-AFFINITY PROTEIN AS THERAPEUTIC TARGET FOR INTRACTABLE CANCER MOLECULAR SUBTYPES AND INHIBITOR THEREOF” (VeraVerse Co., Ltd., priority 2021, published 2025).

What was measured:
Test in all cases: Cell viability drug screen, 12-point dose-response AUC
Assay type in all cases: cell-based, human
MKN45 = details: 72 hours; for area under the viability curve (AUC), normalized: MKN45 cells, 12-point dose-response
In short: (§1)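 Each cell line receives a twelve-point half-log titration of drug beginning 24 h after plating 5×10^3 cells per well. Following 72 h culture at 37 °C, luminescent signal is recorded and expressed versus vehicle. AUC is derived by the trapezoidal method.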

AGS = details: 72 hours; for area under the viability curve (AUC), normalized: AGS cells, 12-point dose-response
In short: as §1

SNU638 = SNU638 cells, 72 hours; for area under the viability curve (AUC), normalized: 12-point dose-response
In short: (§2)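 Luminescent viability readings, taken 15 min after reagent addition at room temperature, were normalized to the 0.5% DMSO control to build 12-point dose-response curves. Trapezoidal integration gave the AUC. Cells had been plated at 5×10^3 per well and then exposed to half-log dilutions for 72 h.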

SNU484 = details: 72 hours; for area under the viability curve (AUC), normalized: SNU484 cells, 12-point dose-response
In short: as §2

MKN28 = MKN28 cells, 72 hours; for area under the viability curve (AUC), normalized: 12-point dose-response
In short: as §2

YCC2 = YCC2 cells, 72 hours; for area under the viability curve (AUC), normalized: 12-point dose-response
In short: as §2

SNU1967 = SNU1967 cells, 72 hours; for area under the viability curve (AUC), normalized: 12-point dose-response
In short: as §2

NCC20 = NCC20 cells, 72 hours; for area under the viability curve (AUC), normalized: 12-point dose-response
In short: as §2

SNU216 = details: 72 hours; for area under the viability curve (AUC), normalized: SNU216 cells, 12-point dose-response
In short: as §1

SNU1 = SNU1 cells, 72 hours; for area under the viability curve (AUC), normalized: 12-point dose-response
In short: as §2

SNU1750 = details: 72 hours; for area under the viability curve (AUC), normalized: SNU1750 cells, 12-point dose-response
In short: as §2

KATO3 = KATO3 cells, 72 hours; for area under the viability curve (AUC), normalized: 12-point dose-response
In short: as §2

YCC11 = details: 72 hours; for area under the viability curve (AUC), normalized: YCC11 cells, 12-point dose-response
In short: as §2

NCC24 = NCC24 cells, 72 hours; for area under the viability curve (AUC), normalized: 12-point dose-response
In short: as §2

Hs746T = details: 72 hours; for area under the viability curve (AUC), normalized: Hs746T cells, 12-point dose-response
In short: as §2

NCI_N87 = NCI_N87 cells, 72 hours; for area under the viability curve (AUC), normalized: 12-point dose-response
In short: as §2

SNU668 = details: 72 hours; for area under the viability curve (AUC), normalized: SNU668 cells, 12-point dose-response
In short: as §2

MKN1 = MKN1 cells, 72 hours; for area under the viability curve (AUC), normalized: 12-point dose-response
In short: as §2

SNU16 = SNU16 cells, 72 hours; for area under the viability curve (AUC), normalized: 12-point dose-response
In short: as §2

SNU719 = SNU719 cells, 72 hours; for area under the viability curve (AUC), normalized: 12-point dose-response
In short: as §1

SNU601 = SNU601 cells, 72 hours; for area under the viability curve (AUC), normalized: 12-point dose-response
In short: as §2

OCUM1 = OCUM1 cells, 72 hours; for area under the viability curve (AUC), normalized: 12-point dose-response
In short: as §2

SK4 = details: 72 hours; for area under the viability curve (AUC), normalized: SK4 cells, 12-point dose-response
In short: as §2

MKN74 = MKN74 cells, 72 hours; for area under the viability curve (AUC), normalized: 12-point dose-response
In short: as §1

SNU620 = SNU620 cells, 72 hours; for area under the viability curve (AUC), normalized: 12-point dose-response
In short: as §2

YCC3 = YCC3 cells, 72 hours; for area under the viability curve (AUC), normalized: 12-point dose-response
In short: as §2

NCC59 = NCC59 cells, 72 hours; for area under the viability curve (AUC), normalized: 12-point dose-response
In short: as §2

NCC19 = NCC19 cells, 72 hours; for area under the viability curve (AUC), normalized: 12-point dose-response
In short: as §2

FU97 = FU97 cells, 72 hours; for area under the viability curve (AUC), normalized: 12-point dose-response
In short: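 Trapezoidal AUC of a 12-point, DMSO-normalized dose-response curve. Luminescent viability was measured after 72 h of exposure at 37° C to half-log serial dilutions (0.5% DMSO control), dosed 24 h after plating FU97 cells at 5×10^3 per well.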

Compound: CC(C)C[C@H](NC(=O)CNC(=O)c1cc(Cl)ccc1Cl)B(O)O [MLN2238]
- area under the viability curve (AUC), normalized (MKN45): 0.4006
- area under the viability curve (AUC), normalized (AGS): −0.8012
- area under the viability curve (AUC), normalized (SNU638): −0.5736
- area under the viability curve (AUC), normalized (SNU484): −0.4125
- area under the viability curve (AUC), normalized (MKN28): 0.5257
- area under the viability curve (AUC), normalized (YCC2): 0.04339
- area under the viability curve (AUC), normalized (SNU1967): −1.676
- area under the viability curve (AUC), normalized (NCC20): −1.247
- area under the viability curve (AUC), normalized (SNU216): 0.2331
- area under the viability curve (AUC), normalized (SNU1): −0.5037
- area under the viability curve (AUC), normalized (SNU1750): −1.896
- area under the viability curve (AUC), normalized (KATO3): 0.7115
- area under the viability curve (AUC), normalized (YCC11): −1.695
- area under the viability curve (AUC), normalized (NCC24): −1.21
- area under the viability curve (AUC), normalized (Hs746T): −1.189
- area under the viability curve (AUC), normalized (NCI_N87): 1.708
- area under the viability curve (AUC), normalized (SNU668): 1.1951
- area under the viability curve (AUC), normalized (MKN1): 0.3958
- area under the viability curve (AUC), normalized (SNU16): 0.7701
- area under the viability curve (AUC), normalized (SNU719): 0.4168
- area under the viability curve (AUC), normalized (SNU601): −0.2758
- area under the viability curve (AUC), normalized (OCUM1): 2.118
- area under the viability curve (AUC), normalized (SK4): 0.5584
- area under the viability curve (AUC), normalized (MKN74): −0.2214
- area under the viability curve (AUC), normalized (SNU620): −0.9643
- area under the viability curve (AUC), normalized (YCC3): 2.808
- area under the viability curve (AUC), normalized (NCC59): 0.318
- area under the viability curve (AUC), normalized (NCC19): −0.8166
- area under the viability curve (AUC), normalized (FU97): 0

Compound: CC(=O)O[C@H]1C(=O)[C@@]2(C)[C@H]([C@H](OC(=O)c3ccccc3)[C@]3(O)C[C@H](OC(=O)[C@H](O)[C@@H](NC(=O)c4ccccc4)c4ccccc4)C(C)=C1C3(C)C)[C@]1(OC(C)=O)CO[C@@H]1C[C@@H]2O [Paclitaxel (Taxol), Paclitaxel]
- area under the viability curve (AUC), normalized (MKN45): 1.473
- area under the viability curve (AUC), normalized (AGS): −1.831
- area under the viability curve (AUC), normalized (SNU638): −0.3898
- area under the viability curve (AUC), normalized (SNU484): −0.3604
- area under the viability curve (AUC), normalized (MKN28): −0.2731
- area under the viability curve (AUC), normalized (YCC2): 0.5673
- area under the viability curve (AUC), normalized (SNU1967): 0.05016
- area under the viability curve (AUC), normalized (NCC20): 0
- area under the viability curve (AUC), normalized (SNU216): 2.148
- area under the viability curve (AUC), normalized (SNU1): −1.778
- area under the viability curve (AUC), normalized (SNU1750): 0.811
- area under the viability curve (AUC), normalized (KATO3): 5.3572
- area under the viability curve (AUC), normalized (YCC11): −0.8302
- area under the viability curve (AUC), normalized (NCC24): −1.616
- area under the viability curve (AUC), normalized (Hs746T): 0.7342
- area under the viability curve (AUC), normalized (NCI_N87): −1.013
- area under the viability curve (AUC), normalized (SNU668): −0.02282
- area under the viability curve (AUC), normalized (MKN1): −1.258
- area under the viability curve (AUC), normalized (SNU16): −0.5105
- area under the viability curve (AUC), normalized (SNU719): 4.877
- area under the viability curve (AUC), normalized (SNU601): −1.106
- area under the viability curve (AUC), normalized (OCUM1): 2.909
- area under the viability curve (AUC), normalized (SK4): −0.872
- area under the viability curve (AUC), normalized (MKN74): 0.186
- area under the viability curve (AUC), normalized (SNU620): −1.998
- area under the viability curve (AUC), normalized (YCC3): 3.81
- area under the viability curve (AUC), normalized (NCC59): 3.637
- area under the viability curve (AUC), normalized (NCC19): 1.902
- area under the viability curve (AUC), normalized (FU97): 0.989

Compound: Nc1nc(F)nc2c1ncn2[C@@H]1O[C@H](COP(=O)(O)O)[C@@H](O)[C@@H]1O [Fludarabine Phosphate (Fludara), Fludarabine Phosphate]
- Average Area Under the Viability Curve (AUC), AUC norm value (MKN45; MKN45 cells (non-SEM subtype)): −1.029
- Average Area Under the Viability Curve (AUC), AUC norm value (AGS; AGS cells (non-SEM subtype)): −2.783
- Average Area Under the Viability Curve (AUC), AUC norm value (SNU638): 0.5006
- Average Area Under the Viability Curve (AUC), AUC norm value (SNU484; SNU484 cells (SEM subtype)): 1.309
- Average Area Under the Viability Curve (AUC), AUC norm value (MKN28): 0.00328
- Average Area Under the Viability Curve (AUC), AUC norm value (YCC2): −0.7765
- Average Area Under the Viability Curve (AUC), AUC norm value (SNU1967): 2.186
- Average Area Under the Viability Curve (AUC), AUC norm value (NCC20): −2.507
- Average Area Under the Viability Curve (AUC), AUC norm value (SNU216; SNU216 cells (non-SEM subtype)): 1.771
- Average Area Under the Viability Curve (AUC), AUC norm value (SNU1): −0.7644
- Average Area Under the Viability Curve (AUC), AUC norm value (SNU1750; SNU1750 cells (SEM subtype)): 1.972
- Average Area Under the Viability Curve (AUC), AUC norm value (KATO3): 1.165
- Average Area Under the Viability Curve (AUC), AUC norm value (YCC11; YCC11 cells (SEM subtype)): −0.6417
- Average Area Under the Viability Curve (AUC), AUC norm value (NCC24): 1.037
- Average Area Under the Viability Curve (AUC), AUC norm value (Hs746T; Hs746T cells (SEM subtype)): 1.97
- Average Area Under the Viability Curve (AUC), AUC norm value (NCI_N87): −0.06169
- Average Area Under the Viability Curve (AUC), AUC norm value (SNU668; SNU668 cells (SEM subtype)): −1.511
- Average Area Under the Viability Curve (AUC), AUC norm value (MKN1): 0.9748
- Average Area Under the Viability Curve (AUC), AUC norm value (SNU16): −0.44
- Average Area Under the Viability Curve (AUC), AUC norm value (SNU719): 2.046
- Average Area Under the Viability Curve (AUC), AUC norm value (SNU601): −0.5439
- Average Area Under the Viability Curve (AUC), AUC norm value (OCUM1): −0.3967
- Average Area Under the Viability Curve (AUC), AUC norm value (SK4; SK4 cells (SEM subtype)): −1.653
- Average Area Under the Viability Curve (AUC), AUC norm value (MKN74): −0.1731
- Average Area Under the Viability Curve (AUC), AUC norm value (SNU620): −2.289
- Average Area Under the Viability Curve (AUC), AUC norm value (YCC3): 0
- Average Area Under the Viability Curve (AUC), AUC norm value (NCC59): 1.479
- Average Area Under the Viability Curve (AUC), AUC norm value (NCC19): 2.411
- Average Area Under the Viability Curve (AUC), AUC norm value (FU97): 2.928
